In ChEMBL document CHEMBL1201862, “PubChem BioAssay data set” (2004):
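Where inhibition never reached the appropriate level, the endpoint shown equals the highest concentration tested. Otherwise, values were interpolated linearly from a five-concentration, 48-hour dose response in 96-well plates. GI50: concentration for 50% inhibition of growth.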 Activity calls are given as the source filed them. No stated cut-off is given here; in the data, active = GI50 up to about 1.1 µM and inactive = higher.

Columns and labels:
Test in all cases: NCI-60 cell line screen, 48 h
[1] = system: M19-MEL
[2] = system: HOP-92
[3] = system: SNB-75
[4] = system: NCI-H522
[5] = system: IGROV-1
[6] = system: XF498
[7] = system: HL-60
[8] = system: HCT-15
[9] = system: UACC-62
[10] = system: SK-OV-3
[11] = system: HT-29
[12] = system: SF-268
[13] = system: SW-620
[14] = system: UO-31
[15] = system: K562
[16] = system: SNB-19
[17] = system: KM12
[18] = system: RPMI-8226
[19] = system: OVCAR-3
[20] = system: SK-MEL-5
[21] = system: NCI-H226
[22] = system: NCI-H460
[23] = system: ACHN
[24] = system: 786-0
[25] = system: EKVX
[26] = system: SNB-78
[27] = system: Malme-3M
[28] = system: LOX IMVI
[29] = system: SF-295
[30] = system: DMS-114
[31] = system: HOP-62
[32] = system: OVCAR-8
[33] = system: SN12C
[34] = system: CAKI-1
[35] = system: KM-20L2
[36] = system: TK-10
[37] = system: U-251
[38] = system: DMS-273
[39] = system: OVCAR-4
[40] = system: UACC-257
[41] = system: M14
[42] = system: HCT-116
[43] = system: LXFL 529
[44] = system: A549
[45] = system: HCC 2998
[46] = system: DLD-1
[47] = system: CCRF-CEM
[48] = system: HOP-18
[49] = system: SF-539
[50] = system: A498
[51] = system: COLO 205
[52] = system: MOLT-4
[53] = system: OVCAR-5
[54] = system: NCI-H23
[55] = system: RXF 393
[56] = system: SK-MEL-2
[57] = system: SR
[58] = system: SK-MEL-28

CC(CC(=O)N1C(=O)C(C)(C)[C@@H](O)[C@H]1CC(C)C(Cl)(Cl)Cl)C(Cl)(Cl)Cl (some centres not stated)
GI50 [1]: > 100 µM (inactive) | GI50 [2]: > 100 µM (inactive) | GI50 [3]: > 100 µM (inactive) | GI50 [4]: > 100 µM (inactive) | GI50 [5]: > 100 µM (inactive) | GI50 [6]: > 100 µM (inactive) | GI50 [7]: > 100 µM (inactive) | GI50 [8]: > 100 µM | GI50 [9]: > 100 µM (inactive) | GI50 [10]: > 100 µM (inactive) | GI50 [11]: > 100 µM (inactive) | GI50 [12]: > 100 µM (inactive) | GI50 [13]: > 100 µM (inactive) | GI50 [14]: > 100 µM (inactive) | GI50 [15]: > 100 µM (inactive) | GI50 [16]: > 100 µM (inactive) | GI50 [17]: > 100 µM (inactive) | GI50 [18]: > 100 µM (inactive) | GI50 [19]: > 100 µM (inactive) | GI50 [20]: > 100 µM (inactive) | GI50 [21]: > 100 µM (inactive) | GI50 [22]: > 100 µM (inactive) | GI50 [23]: > 100 µM (inactive) | GI50 [24]: > 100 µM (inactive) | GI50 [25]: > 100 µM (inactive) | GI50 [26]: > 100 µM (inactive) | GI50 [27]: > 100 µM (inactive) | GI50 [28]: > 100 µM (inactive) | GI50 [29]: > 100 µM (inactive) | GI50 [30]: > 100 µM (inactive) | GI50 [31]: > 100 µM (inactive) | GI50 [32]: > 100 µM (inactive) | GI50 [33]: > 100 µM (inactive) | GI50 [34]: > 100 µM (inactive) | GI50 [35]: > 100 µM (inactive) | GI50 [36]: > 100 µM (inactive) | GI50 [37]: > 100 µM (inactive) | GI50 [38]: > 100 µM (inactive) | GI50 [39]: > 100 µM (inactive) | GI50 [40]: > 100 µM (inactive) | GI50 [41]: > 100 µM (inactive) | GI50 [42]: > 100 µM (inactive) | GI50 [43]: > 100 µM (inactive) | GI50 [44]: > 100 µM (inactive) | GI50 [45]: > 100 µM (inactive) | GI50 [46]: > 100 µM (inactive) | GI50 [47]: > 100 µM (inactive) | GI50 [48]: > 100 µM (inactive) | GI50 [49]: > 100 µM (inactive) | GI50 [50]: > 100 µM (inactive) | GI50 [51]: > 100 µM (inactive) | GI50 [52]: > 100 µM (inactive)

CN(C)C(=O)NC(=S)N(C)C
GI50 [1]: > 100 µM (inactive) | GI50 [2]: > 100 µM (inactive) | GI50 [3]: > 100 µM (inactive) | GI50 [4]: > 100 µM (inactive) | GI50 [53]: > 100 µM (inactive) | GI50 [5]: > 100 µM (inactive) | GI50 [6]: > 100 µM (inactive) | GI50 [7]: > 100 µM (inactive) | GI50 [8]: 17.1 µM | GI50 [9]: > 100 µM (inactive) | GI50 [10]: > 100 µM (inactive) | GI50 [11]: > 100 µM (inactive) | GI50 [12]: > 100 µM (inactive) | GI50 [13]: > 100 µM (inactive) | GI50 [14]: > 100 µM (inactive) | GI50 [15]: > 100 µM (inactive) | GI50 [16]: > 100 µM (inactive) | GI50 [54]: > 100 µM (inactive) | GI50 [17]: > 100 µM (inactive) | GI50 [18]: > 100 µM (inactive) | GI50 [20]: > 100 µM (inactive) | GI50 [21]: 55.1 µM (inactive) | GI50 [22]: > 100 µM (inactive) | GI50 [23]: > 100 µM (inactive) | GI50 [24]: > 100 µM (inactive) | GI50 [25]: > 100 µM (inactive) | GI50 [26]: > 100 µM (inactive) | GI50 [27]: > 100 µM (inactive) | GI50 [29]: > 100 µM (inactive) | GI50 [30]: > 100 µM (inactive) | GI50 [31]: 0.294 µM (active) | GI50 [32]: > 100 µM (inactive) | GI50 [33]: > 100 µM (inactive) | GI50 [34]: > 100 µM (inactive) | GI50 [55]: > 100 µM (inactive) | GI50 [35]: > 100 µM (inactive) | GI50 [36]: > 100 µM (inactive) | GI50 [37]: 0.206 µM (active) | GI50 [38]: > 100 µM (inactive) | GI50 [39]: > 100 µM (inactive) | GI50 [40]: > 100 µM (inactive) | GI50 [41]: > 100 µM (inactive) | GI50 [42]: > 100 µM (inactive) | GI50 [43]: > 100 µM (inactive) | GI50 [44]: > 100 µM (inactive) | GI50 [56]: > 100 µM (inactive) | GI50 [45]: > 100 µM (inactive) | GI50 [46]: > 100 µM (inactive) | GI50 [47]: > 100 µM (inactive) | GI50 [57]: > 100 µM (inactive) | GI50 [48]: > 100 µM (inactive) | GI50 [49]: > 100 µM (inactive) | GI50 [50]: > 100 µM (inactive) | GI50 [52]: > 100 µM (inactive) | GI50 [58]: > 100 µM (inactive)

CC(=O)Nc1ccccc1-c1nc2ccccc2nc1-c1ccccc1
GI50 [1]: > 100 µM (inactive) | GI50 [2]: > 100 µM (inactive) | GI50 [3]: 69.7 µM (inactive) | GI50 [5]: > 100 µM (inactive) | GI50 [6]: > 100 µM (inactive) | GI50 [7]: > 100 µM (inactive) | GI50 [8]: > 100 µM | GI50 [9]: > 100 µM (inactive) | GI50 [10]: > 100 µM (inactive) | GI50 [11]: > 100 µM (inactive) | GI50 [13]: > 100 µM (inactive) | GI50 [14]: 54.7 µM (inactive) | GI50 [15]: > 100 µM (inactive) | GI50 [16]: > 100 µM (inactive) | GI50 [54]: > 100 µM (inactive) | GI50 [17]: > 100 µM (inactive) | GI50 [18]: > 100 µM (inactive) | GI50 [19]: > 100 µM (inactive) | GI50 [22]: > 100 µM (inactive) | GI50 [23]: > 100 µM (inactive) | GI50 [24]: > 100 µM (inactive) | GI50 [25]: > 100 µM (inactive) | GI50 [26]: > 100 µM (inactive) | GI50 [29]: > 100 µM (inactive) | GI50 [30]: > 100 µM (inactive) | GI50 [31]: > 100 µM (inactive) | GI50 [32]: > 100 µM (inactive) | GI50 [33]: > 100 µM (inactive) | GI50 [34]: > 100 µM (inactive) | GI50 [55]: > 100 µM (inactive) | GI50 [35]: > 100 µM (inactive) | GI50 [37]: > 100 µM (inactive) | GI50 [38]: > 100 µM (inactive) | GI50 [39]: > 100 µM (inactive) | GI50 [40]: > 100 µM (inactive) | GI50 [41]: > 100 µM (inactive) | GI50 [42]: > 100 µM (inactive) | GI50 [43]: > 100 µM (inactive) | GI50 [44]: > 100 µM (inactive) | GI50 [56]: > 100 µM (inactive) | GI50 [45]: > 100 µM (inactive) | GI50 [46]: > 100 µM (inactive) | GI50 [47]: > 100 µM (inactive) | GI50 [57]: > 100 µM (inactive) | GI50 [48]: 0.521 µM (active) | GI50 [49]: > 100 µM (inactive) | GI50 [50]: > 100 µM (inactive) | GI50 [51]: > 100 µM (inactive) | GI50 [52]: > 100 µM (inactive) | GI50 [58]: > 100 µM (inactive)
